Experiment: Hydroxyapatite assay (hydroxyapatite adsorption chromatography, bone-targeting potential)
Assay type: physicochemical
Details: corrected retention K=(retention time-void time)/void on TSK-Gel HA 1000 HPLC column; linear gradient 10 mM to 500 mM sodium phosphate, 0.15 N NaCl, pH 6.8
Source text: Hydroxyapatite is the principal mineral component of bone. Hydroxyapatite adsorption chromatography is used as an assay to evaluate the bone-targeting potential of both individual bone-targeting moieties (“monomers”) and of pharmaceuticals incorporating bone-targeting groups.
The rentention time of the compound is expressed in terms of K=(retention time-void time)/void. This K value is corrected using two reference compounds to correct from inter-column and inter-system variation to obtain a K′ value.
Reference Compounds: K′ values were determined for known bone targeted compounds, the bisphosphonate, alendronate and tetracycline.

K′ value: 3.7
SMILES: NCCCC(O)(P(=O)(O)O)P(=O)(O)O [Alendronate, alendronate]
